Experimental data taken from US7655392B2, “Quenching methods for red blood cell inactivation process” (priority 2004, dated 2010).

System: red blood cells
Assay: Gel card agglutination with rabbit anti-acridine sera
Type: cell-based
Protocol: The reduction in modification of red blood cells in the methods of the present invention can be evaluated by several assays. In one assay, rabbit polyclonal sera that is reactive with acridine is produced by injecting New Zealand White rabbits with an acridine compound conjugated to KLH.
This is conjugated to KLH by adding 10 μL of the compound (10 mM in de-ionized water) to 990 μL of a buffered solution of KLH (10 mg/mL in 50 mM Phosphate, 150 mM NaCl, PBS pH=7.2 with proprietary stabilizer, Pierce Cat # 77600) and incubating at room temperature for over 20 hours. Following this incubaton, the conjugated KLH is isolated from the unreacted S-197 and S-197 by-products by passing through a desalting column (e.g. D-salt columns, Pierce) and eluting in PBS buffer. The colored fractions of the solutions are then combined and the KLH conjugates are characterized by the ratio of absorbance at 210 and 410 nm. The acridine-KLH conjugate solutions are mixed with Complete Freund's Adjuvant for intramuscular injection into the rabbits at multiple sites to immunize the rabbits. […] The resulting solution can be assayed for agglutination by passing through a Buffer Gel Card (Micro Typing Systems, Pompano Beach, Fla.). The gel cards are designed to allow non-agglutinated red blood cells to pass through, while cells agglutinated by reaction with the rabbit sera and cross reacting with the anti-rabbit antibody will remain at the top of the gel. The cards are scored as 0, 1+, 2+, 3+, or 4+, where 0 indicates all cells are intact and are at the bottom of the gel, while 4+ indicates complete agglutination, with all cells at the top of the gel.
In these, the appropriate amount of 600 mM stock was added, mixed with an appropriate volume of 8% dextrose to provide the same volume addition to each RBC sample where in one study, with varied glutathione concentrations, the pH was measured after adding glutathione and after adding PIC-1. […] Similar samples were also assessed for the inactivation of S. epidermidis. […] For gel card analysis, after incubation, the RBC were washed in BBS and were diluted in BBS to a final hematocrit of 4%. A 25 μL aliquot of each was mixed with 15 μL of rabbit polyclonal anti-acridine sera diluted either 1:4 or 1:100 in BBS and the mixture was incubated at 37° C. for 30 minutes. The cells were subsequently washed with 1.5 mL BBS. […]
Heterophile antibodies are naturally occurring antibodies that recognize RBC from another species in a non-specific fashion. […] All samples were mixed with quencher first, then PIC-1 at 0.2 mM.
The standard condition was included, i.e. 0.2 mM PIC-1 and 2 mM acidic glutathione added together.

For `O=C(CCNc1c2ccccc2nc2ccccc12)OCCN(CCCl)CCCl` [PIC-1], the Gel card score (Table 13: 5 mM GSH 2eq/15 mM Cys 1eq, 0.2 mM PIC-1, blood sample 1, sera 1:100) was 0, the Gel card score (Table 13: 5 mM GSH 2eq/15 mM Cys 1eq, 0.2 mM PIC-1, blood sample 2, sera 1:4) was 3 and the Gel card score (Table 13: 5 mM GSH 2eq/15 mM Cys 1eq, 0.2 mM PIC-1, blood sample 2, sera 1:100) was 0. It also gave a Gel card score (Table 13: 5 mM GSH 2eq/15 mM Cys 2eq, 0.2 mM PIC-1, blood sample 1, sera 1:4) of 1, a Gel card score (Table 13: 5 mM GSH 2eq/15 mM Cys 2eq, 0.2 mM PIC-1, blood sample 1, sera 1:100) of 0 and a Gel card score (Table 13: 5 mM GSH 2eq/15 mM Cys 2eq, 0.2 mM PIC-1, blood sample 2, sera 1:4) of 1. The Gel card score (Table 13: 5 mM GSH 2eq/15 mM Cys 2eq, 0.2 mM PIC-1, blood sample 2, sera 1:100) was 0, the Gel card score (Table 13: 10 mM GSH 2eq/10 mM Cys 1eq, 0.2 mM PIC-1, blood sample 1, sera 1:4) was 3 and the Gel card score (Table 13: 10 mM GSH 2eq/10 mM Cys 1eq, 0.2 mM PIC-1, blood sample 1, sera 1:100) was 0. It also gave a Gel card score (Table 13: 10 mM GSH 2eq/10 mM Cys 1eq, 0.2 mM PIC-1, blood sample 2, sera 1:4) of 3, a Gel card score (Table 13: 10 mM GSH 2eq/10 mM Cys 1eq, 0.2 mM PIC-1, blood sample 2, sera 1:100) of 0 and a Gel card score (Table 13: 10 mM GSH 2eq/10 mM Cys 2eq, 0.2 mM PIC-1, blood sample 1, sera 1:4) of 2. For the same compound, the Gel card score (Table 13: 10 mM GSH 2eq/10 mM Cys 2eq, 0.2 mM PIC-1, blood sample 1, sera 1:100) was 0, the Gel card score (Table 13: 10 mM GSH 2eq/10 mM Cys 2eq, 0.2 mM PIC-1, blood sample 2, sera 1:4) was 2 and the Gel card score (Table 13: 10 mM GSH 2eq/10 mM Cys 2eq, 0.2 mM PIC-1, blood sample 2, sera 1:100) was 0. The Gel card score (Table 13: 15 mM GSH 2eq/5 mM Cys 1eq, 0.2 mM PIC-1, blood sample 1, sera 1:4) was 4, the Gel card score (Table 13: 15 mM GSH 2eq/5 mM Cys 1eq, 0.2 mM PIC-1, blood sample 1, sera 1:100) was 0 and the Gel card score (Table 13: 15 mM GSH 2eq/5 mM Cys 1eq, 0.2 mM PIC-1, blood sample 2, sera 1:4) was 3. For the same compound, the Gel card score (Table 13: 15 mM GSH 2eq/5 mM Cys 1eq, 0.2 mM PIC-1, blood sample 2, sera 1:100) was 0, the Gel card score (Table 13: 15 mM GSH 2eq/5 mM Cys 2eq, 0.2 mM PIC-1, blood sample 1, sera 1:4) was 4 and the Gel card score (Table 13: 15 mM GSH 2eq/5 mM Cys 2eq, 0.2 mM PIC-1, blood sample 1, sera 1:100) was 0. The Gel card score (Table 13: 15 mM GSH 2eq/5 mM Cys 2eq, 0.2 mM PIC-1, blood sample 2, sera 1:4) was 3, the Gel card score (Table 13: 15 mM GSH 2eq/5 mM Cys 2eq, 0.2 mM PIC-1, blood sample 2, sera 1:100) was 0 and the Gel card score (Table 13: 20 mM Cys 1eq, 0.2 mM PIC-1, blood sample 1, sera 1:4) was 0. It also gave a Gel card score (Table 13: 20 mM Cys 1eq, 0.2 mM PIC-1, blood sample 1, sera 1:100) of 0, a Gel card score (Table 13: 20 mM Cys 1eq, 0.2 mM PIC-1, blood sample 2, sera 1:4) of 3 and a Gel card score (Table 13: 20 mM Cys 1eq, 0.2 mM PIC-1, blood sample 2, sera 1:100) of 0. For the same compound, the Gel card score (Table 13: 20 mM Cys 2eq, 0.2 mM PIC-1, blood sample 1, sera 1:4) was 0, the Gel card score (Table 13: 20 mM Cys 2eq, 0.2 mM PIC-1, blood sample 1, sera 1:100) was 0 and the Gel card score (Table 13: 20 mM Cys 2eq, 0.2 mM PIC-1, blood sample 2, sera 1:4) was 1. It also gave a Gel card score (Table 13: 20 mM Cys 2eq, 0.2 mM PIC-1, blood sample 2, sera 1:100) of 0, a Gel card score (Table 13: 20 mM GSH 2eq, 0.2 mM PIC-1, blood sample 1, sera 1:4) of 4 and a Gel card score (Table 13: 20 mM GSH 2eq, 0.2 mM PIC-1, blood sample 1, sera 1:100) of 0. The Gel card score (Table 13: 20 mM GSH 2eq, 0.2 mM PIC-1, blood sample 2, sera 1:4) was 4, the Gel card score (Table 13: 20 mM GSH 2eq, 0.2 mM PIC-1, blood sample 2, sera 1:100) was 0 and the Gel card score (Table 14: 5 mM CysGly 1 eq. base, 0.2 mM PIC-1, 1:4 dilution of serum) was 4. The Gel card score (Table 14: 5 mM CysGly 1 eq. base, 0.2 mM PIC-1, 1:100 dilution of serum) was 2, the Gel card score (Table 14: 5 mM CysGly, 0.2 mM PIC-1, 1:4 dilution of serum) was 4 and the Gel card score (Table 14: 5 mM CysGly, 0.2 mM PIC-1, 1:100 dilution of serum) was 0. For the same compound, the Gel card score (Table 14: 10 mM CysGly, 0.2 mM PIC-1, 1:4 dilution of serum) was 4, the Gel card score (Table 14: 10 mM CysGly, 0.2 mM PIC-1, 1:100 dilution of serum) was 0 and the Gel card score (Table 14: […] CysGly 1 eq. base, 0.2 mM PIC-1, 1:4 dilution of serum) was 4. It also gave a Gel card score (Table 14: […] CysGly 1 eq. base, 0.2 mM PIC-1, 1:100 dilution of serum) of 4, a Gel card score (Table 14: […] CysGly, 0.2 mM PIC-1, 1:4 dilution of serum) of 4 and a Gel card score (Table 14: […] CysGly, 0.2 mM PIC-1, 1:100 dilution of serum) of 3. The Gel card score (another study, rabbit sera 1:4: 10 mM neutralized (2 eq.) glutathione, 0.2 mM PIC-1) was 4+, the Gel card score (another study, rabbit sera 1:4: 15 mM neutralized (2 eq.) glutathione, 0.2 mM PIC-1) was 3+ and the Gel card score (another study, rabbit sera 1:4: 20 mM neutralized (2 eq.) glutathione, 0.2 mM PIC-1) was 1+. The Gel card score (another study, rabbit sera 1:4: standard condition) was 4+ and the Gel card score (another study, rabbit sera 1:100: 10, 15, 20 mM neutralized glutathione, all samples) was 0.
